Source: patent EP2459551B1, “DIHYDROBENZOINDAZOLES” (Merck Sharp & Dohme B.V., priority 2009, dated 2011)

Each compound was assayed against T1, human FSH receptor (Homo sapiens, UniProt P23945).
T1 sequence (P23945 18-695): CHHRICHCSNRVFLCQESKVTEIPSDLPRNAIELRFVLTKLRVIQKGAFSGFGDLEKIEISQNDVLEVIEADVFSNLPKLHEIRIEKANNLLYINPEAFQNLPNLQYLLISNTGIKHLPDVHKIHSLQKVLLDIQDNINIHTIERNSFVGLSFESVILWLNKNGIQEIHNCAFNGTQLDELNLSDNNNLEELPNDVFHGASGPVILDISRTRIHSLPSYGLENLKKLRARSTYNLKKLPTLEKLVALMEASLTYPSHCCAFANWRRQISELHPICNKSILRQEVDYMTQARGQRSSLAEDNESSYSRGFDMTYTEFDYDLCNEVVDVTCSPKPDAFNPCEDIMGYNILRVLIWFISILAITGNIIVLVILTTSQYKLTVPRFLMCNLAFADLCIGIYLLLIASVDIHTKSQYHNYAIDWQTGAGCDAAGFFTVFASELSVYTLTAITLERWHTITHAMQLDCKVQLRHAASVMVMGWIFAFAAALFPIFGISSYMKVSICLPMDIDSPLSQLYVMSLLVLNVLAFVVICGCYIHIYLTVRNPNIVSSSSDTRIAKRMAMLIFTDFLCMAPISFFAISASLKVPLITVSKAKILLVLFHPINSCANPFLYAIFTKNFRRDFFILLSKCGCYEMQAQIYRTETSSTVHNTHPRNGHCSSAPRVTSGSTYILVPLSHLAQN
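Further: CHO cells stably expressing human FSH receptor with CRE-driven firefly luciferase, luminescence read as counts per second after 4 h compound exposure in 1% DMSO.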
Experimental: Agonistic activity of compounds at the human FSH receptor expressed in CHO cells
Agonistic activity of the compounds at the human FSH receptor was determined in Chinese Hamster Ovary (CHO) cells stably transfected with the human FSH receptor and cotransfected with a cAMP responsive element (CRE)/promotor directing the expression of a firefly luciferase reporter gene. […] Cells (7,500 cells/well of a 384 well plate) were incubated in Dulbecco' minimal essential F12 modified medium (Invitrogen), supplemented with 1 µg/ml bovine insulin, 5 µg/ml human apotransferrin, 80 U/ml penicillin G and 80 µg/ml streptomycin with the test compounds (concentration between 0.0316 nM and 10.0 µM) in duplicate in a humidified atmosphere (95%) at 5-7% CO2 and 37°C. The final concentration of DMSO was 1%. After 4 hours of incubation, plates were allowed to adjust to room temperature for 1 hour. Then, Luclite (PerkinElmer) solution was added to the wells and cells were allowed to lyse for at least 1 hour at room temperature. Subsequently, luciferase activity was measured in a luminescence counter. The signal is expressed as counts per second (cps). The EC50 (concentration of the test compound that elicits half-maximal (50 %) luciferase stimulation compared to the compound's maximally attainable effect) and efficacy values (maximal effect of the test compound as percentage of the maximal effect of recombinant human FSH) of the compounds were determined using the software program MathIQ (version 2.0, ID Business Solutions Limited).

EC50 | Structure (SMILES)
100 to 1000 nM | COc1cc2c(cc1OC(C)C)-c1c(c(C(=O)N(C)C(C)(C)C)nn1-c1ccc(F)cc1)CC2 [Example 13cd, N-tert-butyl-1-(4-fluorophenyl)-8-isopropoxy-7-methoxy-N-methyl-4,5-dihydro-1H-benzo[g]indazole-3-carboxamide]
100 to 1000 nM | COc1cc2c(cc1OC(C)C)-c1c(c(C(=O)N(C)C(C)(C)C)nn1-c1ccc(Cl)cc1)CC2 [Example 13ce, N-tert-butyl-1-(4-chlorophenyl)-8-isopropoxy-7-methoxy-N-methyl-4,5-dihydro-1H-benzo[g]indazole-3-carboxamide]
1000 to 10000 nM | COc1cc2c(cc1OC(C)C)-c1c(c(C(=O)N(C)C(C)(C)C)nn1-c1ccc(Br)cc1)CC2 [Example 13cf, N-tert-butyl-1-(4-bromophenyl)-8-isopropoxy-7-methoxy-N-methyl-4,5-dihydro-1H-benzo[g]indazole-3-carboxamide]
1000 to 10000 nM | COc1cc2c(cc1OC)-c1c(c(C(=O)N3CCCN(C(C)=O)CC3)nn1-c1ccsc1)CC2 [Example 14e, 1-(4-(7,8-dimethoxy-1-(thiophen-3-yl)-4,5-dihydro-1H-benzo[g]indazole-3-carbonyl)-1,4-diazepan-1-yl)ethanone]
